According to ChEMBL document CHEMBL1144536, “Ring substituent effects on biological activity of vinyl sulfones as inhibitors of HIV-1” (Bioorg Med Chem, 2007):

Key:
[1] = target: T1, Human immunodeficiency virus type 1 integrase (Human immunodeficiency virus 1, UniProt Q7ZJM1); assay: Inhibition of HIV1 integrase-mediated 3'-processing activity
[2] = target: T1, Human immunodeficiency virus type 1 integrase; assay: Inhibition of HIV1 integrase-mediated integration activity
[3] = test system: Human immunodeficiency virus 1; assay: Antiviral activity against HIV1 by focal infectivity assay; assay type: functional, organism-based
[4] = Cytotoxicity against HeLa H1-JC.37 cells by MTS assay; assay type: cell-based; settings: Homo sapiens
[5] = Selectivity ratio of EC50 for HIV1 to IC50 for HeLa H1-JC.37 cells; assay type: functional

T1 sequence (Q7ZJM1 whole entry): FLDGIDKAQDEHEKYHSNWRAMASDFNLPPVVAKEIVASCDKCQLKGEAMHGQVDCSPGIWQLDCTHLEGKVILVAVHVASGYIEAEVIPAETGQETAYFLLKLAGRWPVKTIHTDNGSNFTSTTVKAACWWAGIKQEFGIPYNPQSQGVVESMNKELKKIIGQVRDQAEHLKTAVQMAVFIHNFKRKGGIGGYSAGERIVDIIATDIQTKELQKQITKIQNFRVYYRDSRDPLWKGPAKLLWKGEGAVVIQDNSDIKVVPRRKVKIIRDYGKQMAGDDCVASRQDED

Row | Structure (SMILES) | IC50 [1] [µM] | IC50 [2] [µM] | EC50 [3] [µM] | IC50 [4] [µM] | Ratio IC50/EC50 [5]
1 | O=S(=O)(CCc1ccccc1)CS(=O)(=O)CCc1ccccc1 | > 100 | > 100 | > 10 | > 150 | 
2 | O=S(=O)(/C=C/c1ccc2c(c1)OCCO2)CS(=O)(=O)/C=C/c1ccc2c(c1)OCCO2 | > 100 | > 100 | > 10 |  | 
3 | COc1ccc(Br)cc1/C=C/S(=O)(=O)CS(=O)(=O)/C=C/c1cc(Br)ccc1OC | > 100 | > 100 | > 10 |  | 
4 | COc1cc(OC)c(OC)cc1/C=C/S(=O)(=O)CS(=O)(=O)/C=C/c1cc(OC)c(OC)cc1OC | > 1000 | > 1000 | > 10 |  | 
5 | O=S(=O)(/C=C/c1cc(OCc2ccccc2)c(OCc2ccccc2)c(OCc2ccccc2)c1)CS(=O)(=O)/C=C/c1cc(OCc2ccccc2)c(OCc2ccccc2)c(OCc2ccccc2)c1 | > 100 | > 100 | > 10 |  | 
6 | O=S(=O)(/C=C/c1ccccc1)CS(=O)(=O)/C=C/c1ccccc1 | > 100 | > 100 | 1.2 | 12 | 9.9
7 | COc1cc(/C=C/S(=O)(=O)CS(=O)(=O)/C=C/c2cc(Br)c(OC)c(OC)c2)cc(Br)c1OC | > 100 | > 100 | > 10 |  | 
8 | O=S(=O)(/C=C/c1ccc(OCc2ccccc2)c(OCc2ccccc2)c1)CS(=O)(=O)/C=C/c1ccc(OCc2ccccc2)c(OCc2ccccc2)c1 | > 100 | > 100 | > 10 |  | 
9 | O=S(=O)(/C=C/c1cc(Cl)ccc1Cl)CS(=O)(=O)/C=C/c1cc(Cl)ccc1Cl | > 100 | > 100 | 3.4 | 2.6 | 0.77
10 | O=S(=O)(/C=C/c1ccccc1OCc1ccccc1)CS(=O)(=O)/C=C/c1ccccc1OCc1ccccc1 | > 100 | > 100 | > 10 |  | 
11 | O=S(=O)(/C=C/c1cccc(Br)n1)CS(=O)(=O)/C=C/c1cccc(Br)n1 | > 1000 | 900 | > 10 |  | 
12 | O=S(=O)(/C=C/c1cc(F)c(F)c(F)c1)CS(=O)(=O)/C=C/c1cc(F)c(F)c(F)c1 | > 100 | > 100 | 2 | 7.8 | 3.9

The next lines start with results.

Row | IC50 [1] [µM] | IC50 [2] [µM] | EC50 [3] [µM] | Structure (SMILES) | IC50 [4] [µM] | Ratio IC50/EC50 [5]
13 | > 100 | 95 | > 10 | O=S(=O)(/C=C/c1ccc2[nH]ccc2c1)CS(=O)(=O)/C=C/c1ccc2[nH]ccc2c1 |  | 
14 | 33 | 33 | > 10 | O=C(O)c1ccc(/C=C/S(=O)(=O)CS(=O)(=O)/C=C/c2ccc(C(=O)O)cc2)cc1 |  | 
15 | 900 | 333 | > 10 | O=S(=O)(CCc1cc(F)c(F)c(F)c1)CS(=O)(=O)CCc1cc(F)c(F)c(F)c1 | 110 | 
16 | 850 | 500 | > 10 | COc1cc(Br)c(/C=C/S(=O)(=O)CS(=O)(=O)/C=C/c2cc(OC)c(OC)cc2Br)cc1OC |  | 
17 | 500 | 500 | > 10 | COc1cc(/C=C/S(=O)(=O)CS(=O)(=O)/C=C/c2cc(OC)c(OC)cc2[N+](=O)[O-])c([N+](=O)[O-])cc1OC |  | 
18 | 40 | 17 | 6.2 | O=S(=O)(CCc1ccc(O)c(O)c1)CS(=O)(=O)CCc1ccc(O)c(O)c1 | 170 | 27
